Counter-ions that a name gives are not always drawn. Like-named read-outs stand apart in the source and are kept apart here.
Tests used:
[1] = system: iCell endothelial cells (human iPSC-derived ECs); assay: Tube formation (tubulogenesis) assay in iCell endothelial cells, 18 h; format: cell-based; conditions: Homo sapiens, Endothelial cell, 18 hr; for activity at 0.1 µM: 0.10 µM
Method in brief: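 Tube formation was measured by calcein AM imaging after overnight compound exposure (37°C, 0.5% DMSO vehicle) of human iPSC-derived ECs, 7,500/well, on reduced-growth-factor Geltrex in starvation medium. Vehicle-normalized data fitted to four-parameter logistic; POD set at one vehicle SD; without response, 100 μM taken as NOAEL.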

[2] = system: iCell endothelial cells (human iPSC-derived ECs); assay: High-content imaging cytotoxicity in iCell endothelial cells, 24 h; format: cell-based; conditions: Homo sapiens, Endothelial cell, 24 hr; for viability at 0.1 µM / activity at 0.1 µM: 0.10 µM
Method in brief: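 Readouts were vehicle-normalised and fitted to a four-parameter logistic model. POD was set at one SD beyond 0.5% DMSO control means, and 100 µM was assigned when no response was seen. Cells were monolayers of iCell endothelial cells imaged after 24 h compound exposure using nuclear, mitochondrial and calcein dyes.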

[3] = iPSC-EC tube formation, 0.00 µM control = 100.00, read-out: endo.mtl.18hr
[4] = iPSC-EC tube formation, 0.00 µM control = 100.00, read-out: endo.tlps.18hr
[5] = iPSC-EC tube formation, 0.00 µM control = 100.00, read-out: endo.tta.18hr
[6] = iPSC-EC tube formation, 0.00 µM control = 100.00, read-out: endo.ttl.18hr
[7] = iPSC-EC, 0.00 µM control = 100.00, read-out: endo.cyto.24hr
[8] = iPSC-EC, 0.00 µM control = 100.00, read-out: endo.mito.24hr
[9] = iPSC-EC, 0.00 µM control = 100.00, read-out: endo.mitoint.24hr
[10] = iPSC-EC, 0.00 µM control = 100.00, read-out: endo.nma.24hr
[11] = iPSC-EC, 0.00 µM control = 100.00, read-out: endo.tc.24hrs

O=S(=O)(O)Oc1cc(Cl)c(-c2cc(Cl)ccc2Cl)cc1Cl [4-yl PCB 52 sulfate]
activity at 0.01 µM [1, 3]: 116% | activity at 0.01 µM [1, 4]: 87.8% | activity at 0.01 µM [1, 5]: 122% | activity at 0.01 µM [1, 6]: 129% | activity at 0.1 µM [1, 3]: 108% | activity at 0.1 µM [1, 4]: 115% | activity at 0.1 µM [1, 5]: 115% | activity at 0.1 µM [1, 6]: 119% | activity at 1 µM [1, 3]: 109% | activity at 1 µM [1, 4]: 108% | activity at 1 µM [1, 5]: 112% | activity at 1 µM [1, 6]: 119% | activity at 10 µM [1, 3]: 73.9% | activity at 10 µM [1, 4]: 46.2% | activity at 10 µM [1, 5]: 70% | activity at 10 µM [1, 6]: 71.1% | activity at 100 µM [1, 3]: 46.8% | activity at 100 µM [1, 4]: 10.1% | activity at 100 µM [1, 5]: 0.18% | activity at 100 µM [1, 6]: 0.34% | minimal effective concentration ([1]; iPSC-EC tube formation, top concentration 100.00 µM, read-out: endo.mtl.18hr POD): 7.44 µM | minimal effective concentration ([1]; iPSC-EC tube formation, top concentration 100.00 µM, read-out: endo.tlps.18hr POD): 5.74 µM | minimal effective concentration ([1]; iPSC-EC tube formation, top concentration 100.00 µM, read-out: endo.tta.18hr POD): 8.83 µM | minimal effective concentration ([1]; iPSC-EC tube formation, top concentration 100.00 µM, read-out: endo.ttl.18hr POD): 9.64 µM | viability at 0.01 µM [2, 7]: 99.1% | activity at 0.01 µM [2, 8]: 98.6% | activity at 0.01 µM [2, 9]: 93.7% | activity at 0.01 µM [2, 10]: 105% | viability at 0.01 µM [2, 11]: 99.1% | viability at 0.1 µM [2, 7]: 92.5% | activity at 0.1 µM [2, 8]: 92.7% | activity at 0.1 µM [2, 9]: 90.1% | activity at 0.1 µM [2, 10]: 105% | viability at 0.1 µM [2, 11]: 92.5% | viability at 1 µM [2, 7]: 95.5% | activity at 1 µM [2, 8]: 96.1% | activity at 1 µM [2, 9]: 96.9% | activity at 1 µM [2, 10]: 102% | viability at 1 µM [2, 11]: 95.5% | viability at 10 µM [2, 7]: 104% | activity at 10 µM [2, 8]: 103% | activity at 10 µM [2, 9]: 82.8% | activity at 10 µM [2, 10]: 99.1% | viability at 10 µM [2, 11]: 104% | viability at 100 µM [2, 7]: 71.2% | activity at 100 µM [2, 8]: 66.7% | activity at 100 µM [2, 9]: 92.6% | activity at 100 µM [2, 10]: 104% | viability at 100 µM [2, 11]: 71.4% | minimal effective concentration ([2]; iPSC-EC, top concentration 100.00 µM, read-out: endo.cyto.24hr POD): 41.2 µM | minimal effective concentration ([2]; iPSC-EC, top concentration 100.00 µM, read-out: endo.mito.24hr POD): 41.2 µM | minimal effective concentration ([2]; iPSC-EC, top concentration 100.00 µM, read-out: endo.mitoint.24hr POD): 100 µM | minimal effective concentration ([2]; iPSC-EC, top concentration 100.00 µM, read-out: endo.nma.24hr POD): 100 µM | minimal effective concentration ([2]; iPSC-EC, top concentration 100.00 µM, read-out: endo.tc.24hrs POD): 50.3 µM

O=S(=O)(O)Oc1cc(-c2ccccc2)ccc1Cl [3-PCB 3 sulfate]
minimal effective concentration ([1]; endothelial cells (endo), tube formation mtl, read-out: POD endo.mtl.18hr): 100 µM | minimal effective concentration ([1]; endothelial cells (endo), tube formation tlps, read-out: POD endo.tlps.18hr): 6.75 µM | minimal effective concentration ([1]; endothelial cells (endo), tube formation tta, read-out: POD endo.tta.18hr): 100 µM | minimal effective concentration ([1]; endothelial cells (endo), tube formation ttl, read-out: POD endo.ttl.18hr): 100 µM | minimal effective concentration ([2]; endothelial cells (endo), cyto, read-out: POD endo.cyto.24hr): 100 µM | minimal effective concentration ([2]; endothelial cells (endo), mito, read-out: POD endo.mito.24hr): 100 µM | minimal effective concentration ([2]; endothelial cells (endo), mitoint, read-out: POD endo.mitoint.24hr): 100 µM | minimal effective concentration ([2]; endothelial cells (endo), nma, read-out: POD endo.nma.24hr): 100 µM | minimal effective concentration ([2]; endothelial cells (endo), tc, read-out: POD endo.tc.24hr): 100 µM

Source: article PMC7377239, “Cardiovascular Effects of Polychlorinated Biphenyls and Their Major Metabolites” (Environmental Health Perspectives, 2020)
